Experiments:
[1] = test system: Bax-Bak wild-type mouse embryonic fibroblasts; assay: MTT cytotoxicity assay, Bax-Bak WT MEFs; assay type: cell-based; settings: Fibroblast, 72 h, 3 days, read-out: Means of IC50
Protocol: (§1) The test compound of pomiferin is dissolved in DMSO at a final concentration of 100 mmol/L and stored at −20° C. Cytotoxicity is assessed using the 3-(4,5-dimethylthiazol-2-yl)-2,5-diphenyltetrazolium bromide assay as previously described^29. 2500 of caspase wild-type (caspase WT), caspase-3 deficient (caspase 3KO), caspase-7 deficient (caspase 7KO), caspase-3/-7 deficient (caspase 3/7 DKO), caspase-8 deficient (caspase 8KO), Bax-Bak wild-type (Bak-Bak WT) and Bax-Bak double knock out (Bak-Bak DKO) mouse embryonic fibroblasts (MEFs) are seeded on 96-well plates per well. After overnight pre-incubation, the cells are exposed to different concentrations of pomiferin (namely 100, 50, 25, 12.5, 6.25, 3.125, 1.5625, 0.78, 0.39, 0.195, 0.079, 0.039 μmol/L) for 3 days. Subsequently, 10 μL of MTT reagents is added to each well and incubated at 37° C. for 4 hours, followed by the addition of 100 μL solubilization buffer (10% SDS in 0.01 mol/L HCl) and overnight incubation. Absorbance at 585 nm is determined from each well on the following day. The percentage of cell viability is calculated using the following formula: Cell viability (%)=Cells numbertreated/Cells numberDMSO control×100. Data is obtained from three independent experiments.

[2] = test system: HepG2 (human liver cancer) cells; assay: MTT cytotoxicity assay, HepG2; assay type: cell-based; settings: 72 h, 3 days, read-out: Means of IC50
Protocol: Pomiferin is dissolved in DMSO at a final concentration of 100 mmol/L and stored at −20° C. Cytotoxicity is assessed using the 3-(4,5-dimethylthiazol-2-yl)-2,5-diphenyltetrazolium bromide assay. 4000-8000 HeLa (human cervical cancer), MCF-7 (human breast cancer), HepG2 and Hep3B (human liver cancer), H1299 and A549 (human lung cancer), LNCap (human prostate cancer) and LLC-1 (mouse Lewis lung carcinoma) cells are seeded on 96-well plates per well. After overnight pre-incubation, the cells are exposed to different concentrations of pomiferin ([…]) for 3 days. Subsequently, 10 μL of MTT reagents is added to each well and incubated at 37° C. for 4 hours followed by the addition of 100 μL solubilization buffer (10% SDS in 0.01 mol/L HCl) and overnight incubation. Absorbance at 585 nm is determined from each well the next day. The percentage of cell viability is calculated using the following formula: Cell viability (%)=Cells number treated/Cells number DMSO control×100. Data are obtained from three independent experiments.

[3] = test system: caspase-3/-7 deficient (caspase 3/7 DKO) mouse embryonic fibroblasts; assay: MTT cytotoxicity assay, caspase 3/7 DKO MEFs; assay type: cell-based; settings: Fibroblast, 72 h, 3 days, read-out: Means of IC50
Protocol: as §1

[4] = test system: HCT-116 p53+/+ isogenic colon cancer cells; assay: MTT cytotoxicity assay, HCT116 p53+/+; assay type: cell-based; settings: Homo sapiens, HCT-116, 72 h, HCT116 p53+/+ (wild-type), 3 days, read-out: Means of IC50
Protocol: as §1, with “4000” for “2500”, “drug-resistant HCT-116 p53+/+, HCT-116 p53−/−” for “caspase wild-type (caspase WT), caspase-3 deficient (caspase 3KO), caspase-7 deficient (caspase 7KO), caspase-3/-7 deficient (caspase 3/7 DKO), caspase-8 deficient (caspase 8KO), Bax-Bak wild-type (Bak-Bak WT)”, “HCT-116 p53−/− isogenic colon cancer cells” for “Bax-Bak double knock out (Bak-Bak DKO) mouse embryonic fibroblasts (MEFs)”, “[…])” for “μmol/L)”

[5] = test system: caspase WT, 3KO, 7KO, 3/7 DKO, 8KO, Bax-Bak WT and Bax-Bak DKO MEFs; assay: Endogenous autophagic LC3 puncta in apoptosis-resistant MEFs; assay type: cell-based, mouse; settings: wild-type and apoptosis-resistant MEFs; FIG. 7
Protocol: Endogenous LC3 puncta formation is quantified as previously described^2. In brief, caspase wild-type (caspase WT), caspase-3 deficient (caspase 3KO), caspase-7 deficient (caspase 7KO), caspase-3/-7 deficient (caspase 3/7 DKO), caspase-8 deficient (caspase 8KO), Bax-Bak wild-type (Bak-Bak WT) and Bax-Bak double knock out (Bak-Bak DKO) MEFs are grown on coverslips in a 6-well plate are treated with […] of pomiferin. Both wild-type and deficient MEFs are then fixed in 4% paraformaldehyde for 20 minutes at room temperature and then rinsed with PBS. After washing with PBS, the cells are then incubated with anti-LC3 (1:200) in TBST (100 mM Tris HCl, pH 7.5, 150 mM NaCl, 0.05% Tween 20 and 5% BSA) overnight at 4. After washing with PBS, the cells are incubated with anti-mouse secondary antibody (TRITC) 1:200 in TBST containing 5% BSA at 37 for 1 hrs in the dark. The coverslips are then mounted with FluorSave™ mounting media (Calbiochem, San Diego, Calif., USA) for fluorescence imaging and localization of LC3 autophagosomes are captured under the API Delta Vision Live-cell Imaging System (Applied Precision Inc., GE Healthcare Company, Washington, USA).

[6] = test system: HeLa cells; assay: Cytosolic calcium detection by flow cytometry (Fluo-3); assay type: cell-based, human; settings: 10 μM, 10 min to 4 h, FIG. 4A
Protocol: Changes in intracellular free calcium are measured by a fluorescent dye, Fluo-3, as described previously^21. Briefly, HeLa cells are washed twice with MEM medium after pomiferin treatment (10 μM) for various times (10 min, 0.5 h, 1 h, 2 h, 4 h). Then cell suspensions are incubated with 5 μM Fluo-3 at 37° C. for 30 min. Then the cells are washed twice with HBSS. After re-suspended cell samples are subjected to FACS analysis, at least 10,000 events are analyzed.

[7] = test system: HCT-116 p53−/− isogenic colon cancer cells; assay: MTT cytotoxicity assay, HCT116 p53−/−; assay type: cell-based; settings: Homo sapiens, HCT-116, 72 h, HCT116 p53−/− (p53-deficient), 3 days, read-out: Means of IC50
Protocol: as §1, with “4000” for “2500”, “drug-resistant HCT-116 p53+/+, HCT-116 p53−/−” for “caspase wild-type (caspase WT), caspase-3 deficient (caspase 3KO), caspase-7 deficient (caspase 7KO), caspase-3/-7 deficient (caspase 3/7 DKO), caspase-8 deficient (caspase 8KO), Bax-Bak wild-type (Bak-Bak WT)”, “HCT-116 p53−/− isogenic colon cancer cells” for “Bax-Bak double knock out (Bak-Bak DKO) mouse embryonic fibroblasts (MEFs)”, “[…])” for “μmol/L)”

Structure (SMILES): CC(C)=CCc1c2c(c3occ(-c4ccc(O)c(O)c4)c(=O)c3c1O)C=CC(C)(C)O2 [pomiferin]
- IC50 [1]: 0.44 µM
- IC50 [2]: 13.6 µM
- IC50 [3]: 2.21 µM
- IC50 [4]: 6.51 µM
- autophagy induction (endogenous LC3 puncta) [5]: able to induce autophagy in all these wild-type and apoptosis-resistant cells
- cytosolic calcium level [6]: increase the cytosolic calcium level in a time dependent manner
- IC50 [7]: 6.12 µM

Reference: US20170014375A1, “PHARMACEUTICAL COMPOSITION COMPRISING EFFECTIVE DOSE OF POMIFERIN FOR TREATING CANCERS” (Macau University of Science and Technology, priority 2015, published 2017)
